Source: patent US20090117563A1, “Identification of TRPML3 (MCOLN3) as a Salty Taste Receptor and Use in Assays for Identifying Taste (Salty) Modulators and/or Therapeutics that Modulate Sodium Transport, Absorption or Excretion and/or Aldosterone and/or Vasopressin Production or Release” (priority 2007, published 2009)
Numbering of substitutions follows the chain as printed.

Experiments:
[1] = system: human salty taste (sodium chloride taste intensity); assay: Human salty taste perception (perceived salt intensity); type: in vivo; details: tested at 300-fold (amiloride) and 3000-fold above IC50 values for alpha beta gamma ENaC
Excerpt: Unlike other mammals, amiloride only slightly reduces the intensity of sodium chloride taste, i.e., by about 15-20% when used at concentrations that specifically modulate ENaC function (Halpern, B. P. (1998) Neuroscience and Behavioral Reviews. 23: 5-47). […] Based thereon, it was theorized that other (ENaC genes) were involved in human salty taste perception.

[2] = biological target: T1, human TRPML3 (Homo sapiens, UniProt Q8TDD5); assay: Whole cell patch clamp electrophysiology of cells expressing human TRPML3; type: cell-based
T1 construct: expressed in transfected cells
T1 sequence (Q8TDD5 1-553): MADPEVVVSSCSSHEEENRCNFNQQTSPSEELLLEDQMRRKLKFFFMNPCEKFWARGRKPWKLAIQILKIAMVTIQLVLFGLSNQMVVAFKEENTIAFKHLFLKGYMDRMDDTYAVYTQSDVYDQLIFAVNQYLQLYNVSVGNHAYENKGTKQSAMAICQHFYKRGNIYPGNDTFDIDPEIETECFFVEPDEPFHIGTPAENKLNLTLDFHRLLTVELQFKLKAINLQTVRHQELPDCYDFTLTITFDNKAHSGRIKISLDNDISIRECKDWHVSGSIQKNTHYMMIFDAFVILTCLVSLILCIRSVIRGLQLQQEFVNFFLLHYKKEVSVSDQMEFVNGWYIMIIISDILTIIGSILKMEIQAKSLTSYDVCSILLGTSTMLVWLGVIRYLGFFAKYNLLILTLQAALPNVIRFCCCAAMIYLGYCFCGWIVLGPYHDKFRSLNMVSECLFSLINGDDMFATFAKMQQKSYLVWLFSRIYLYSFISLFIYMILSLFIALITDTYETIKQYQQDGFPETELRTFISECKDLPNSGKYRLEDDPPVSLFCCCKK
Excerpt: The whole cell voltage clamp technique is an electrophysiology method that measures the macroscopic electrical current flowing across the entire plasma membrane though protein channels. Live mammalian cells are placed in a special microscope chamber containing extracellular solution. Guided by a micromanipulator and under visual control, a small diameter glass pipette filled with an electrically conductive salt solution is first attached to the cell membrane using gentle negative pressure resulting in a high resistance gigaOhm seal. The membrane patch within the pipette is disrupted using further suction resulting in the whole cell patch clamp configuration. The whole cell patch clamp configuration allows the combined measurement of all ion channels proteins within the membrane or macroscopic current. Using the patch clamp amplifier in combination with the whole-cell patch clamp configuration allows the operator to control the voltage, or potential difference across the entire cell membrane, as well as the both the internal and external ionic composition of the cell. […]

[3] = biological target: T2, A419P TRPML3 (Homo sapiens, UniProt Q8TDD5, A419P); assay: FLIPR membrane potential dye assay, HEK293 cells expressing A419P-TRPML3; type: cell-based; details: amiloride
T2 construct: expressed in transfected cells
T2 sequence (Q8TDD5 1-553 A419P): T1 sequence (Q8TDD5 1-553) with A419P
Excerpt: Specific cell-based assays for the discovery of TRPML3 modulators were developed which that could ultimately be used in food and beverages to modulate saltiness perception. A419P-TRPML3 function was monitored in HEK293 cells transiently transfected or transduced with the gene encoding A419P-TRPML3 and using specific membrane potential dyes (FMPs; Molecular Devices).
(§1) HEK293 cells were transiently transfected with RFP, αENaC or A419P-TRPML3 and were loaded with a membrane potential dye (R-8034; Molecular Devices) in HBSS at room temperature for 30 minutes. Membrane potential (fluorescent signal) was monitored on a FLIPR system (Molecular Devices).
(§2) HEK293 cells were transiently transfected with RFP or A419P-TRPML3 and were loaded with a membrane potential dye (R-8034; Molecular Devices) in HBSS at room temperature for 30 minutes. Membrane potential (fluorescent signal) was monitored on a FLIPR system (Molecular Devices).
as §2, with “HBSS, NMDG and increasing concentrations of gadolinium were added to the cells and resulting changes in membrane” for “Membrane”
as §1, with “RFP, A419P-TRPML3 or” for “RFP,”, “plasmid” for “or A419P-TRPML3”, “HBSS (control), 3 mM gadolinium and 30 uM Amiloride were added to the cells and resulting changes in membrane” for “Membrane”

[4] = biological target: T3, αENaC (Homo sapiens, UniProt P37088); assay: FLIPR membrane potential dye assay, HEK293 cells transfected with αENaC; type: cell-based; details: 30 uM Amiloride; αENaC versus A419P-TRPML3 transfected cells
T3 construct: expressed in transfected cells; host or cells: HEK293, transient transfection
Experimental: as §1
as §1, with “RFP, A419P-TRPML3 or” for “RFP,”, “plasmid” for “or A419P-TRPML3”, “HBSS (control), 3 mM gadolinium and 30 uM Amiloride were added to the cells and resulting changes in membrane” for “Membrane”

[5] = system: human salty taste (sodium chloride taste intensity); details: concentrations that specifically modulate ENaC function; cited from earlier work
[6] = biological target: T4, Homo sapiens TRPML3 A419P, expressed in HEK293 cells (human, UniProt Q8TDD5 1-553); assay: cell-based or functional assay
T4 sequence: T1 sequence (Q8TDD5 1-553) with A419P

T3 sequence (P37088 whole entry): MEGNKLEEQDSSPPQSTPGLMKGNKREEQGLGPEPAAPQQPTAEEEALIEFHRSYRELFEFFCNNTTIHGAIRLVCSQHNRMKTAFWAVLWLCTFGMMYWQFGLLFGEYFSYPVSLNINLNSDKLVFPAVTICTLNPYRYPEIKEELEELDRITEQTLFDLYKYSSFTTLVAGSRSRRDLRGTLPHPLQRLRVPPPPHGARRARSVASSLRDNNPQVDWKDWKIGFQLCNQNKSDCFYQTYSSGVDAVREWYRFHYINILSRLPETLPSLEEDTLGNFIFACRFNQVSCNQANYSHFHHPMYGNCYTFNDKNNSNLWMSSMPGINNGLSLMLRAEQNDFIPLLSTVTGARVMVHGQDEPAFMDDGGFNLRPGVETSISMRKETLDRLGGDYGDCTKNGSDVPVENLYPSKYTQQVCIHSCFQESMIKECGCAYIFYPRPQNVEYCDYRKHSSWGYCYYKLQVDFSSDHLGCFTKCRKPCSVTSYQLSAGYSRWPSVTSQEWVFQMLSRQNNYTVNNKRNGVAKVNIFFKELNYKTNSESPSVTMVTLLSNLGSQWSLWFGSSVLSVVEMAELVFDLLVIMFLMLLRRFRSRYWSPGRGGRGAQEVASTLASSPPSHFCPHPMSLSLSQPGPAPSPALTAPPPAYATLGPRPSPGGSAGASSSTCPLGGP

**Q.** For `NC(=Nc1ccccc1)NC(=O)c1nc(Cl)c(N)nc1N` [phenamil], which “effect on perceived human salt intensity” value [1] is on record?
**A.** did not elicit a significant effect

**Q.** With `N=C(N)NC(=O)c1nc(Cl)c(N)nc1N` [amiloride] as the molecule, how does the “effect on perceived human salt intensity” value [1] read?
**A.** did not elicit a significant effect

**Q.** What about the “block of TRPML3 sodium conductance (current-voltage curves)” value ([2]; 30 uM amiloride) of the same molecule?
**A.** not blocked

**Q.** What about the “block of TRPML3” value ([2]; no concentration given) of the same molecule?
**A.** not blocked

**Q.** And the “effect on the increased basal fluorescence elicited by A419P-TRPML3” value [3]?
**A.** no effect

**Q.** And the “effect on basal fluorescence counts, specificity” value [4]?
**A.** preferentially reduces basal fluorescence counts

**Q.** And the “reduction of the intensity of sodium chloride taste” value [5]?
**A.** 15-20%

B1: Homo sapiens TRPML3 (NM_018298), wild-type, non codon optimized cDNA, expressed in HEK293 cells (other)
chain: T1 sequence (Q8TDD5 1-553)
**Q.** Which “inward currents, whole cell patch clamp, HEK293 cells coexpressing A419P (0.5 ug) and WT (1.5 ug) TRPML3 cDNAs” value [6] does the source give for B1 here?
**A.** 2 fold against A419P cDNA alone
